Entries after “also recorded” stand apart in the source; their conditions may differ.
Tests used:
[1] = system: colon epithelial cells (CECs); assay: Flow cytometric (FACS) analysis of BrdU labeled colon epithelial cell nuclei; format: in vivo, Fisher 344 rats; conditions: for BrdU+ cells in proliferative fraction of the crypt: FACS
Procedure: For BrdU labeling, rats received BrdU in drinking water at 1 mg/ml. Glucose (1 g/100 ml) was added to the water to mask the taste of BrdU. BrdU was added to the water, then the bottle was shaken. Next, glucose was added and the bottle was vigorously shaken to dissolve BrdU completely. It took approximately 1-2 min for BrdU to dissolve completely. It was important to prepare BrdU drinking water freshly everyday during the feeding period.
Colon was excised fresh at necropsy. Feces were removed with 0.015M NaCl solution with 0.001M dithiothreitol (DTT) and the colon was placed in cold, 1.6% Joklik's modified medium (JMMEM, Gibco Invitrogen, Grand Island, N.Y.) for 120 minutes. CECs from different proliferative fractions of the crypt were separated sequentially using the nonenzymatic, mechanical dissociation method described elsewhere. CEC from different crypt fractions (basal proliferative fraction and top mature fraction) were collected by incubating the colon sac filled with PBS buffers containing chelating agents. The tissue was shaken in a 37° C. water bath for 20 minutes, then 15 minutes and 30 minutes for collecting CECs from top, middle and the basal fractions, respectively. The middle fraction (transitional fraction) was discarded. The collected CECs were then separated from intraepithelial lymphocytes and other contaminants by applying to a discontinuous Percoll (Amersham Biosciences, Uppsala, Sweden) gradient centrifugation, with 45% Percoll overlaid on 75% Percoll. CEC from the proliferative fraction (the base of the crypts) were collected and used for FACS and GC/MS analysis since LRCs are known to be located at this region. The CECs from the mature (top) fractions from the rats that were given ^2H2O for 2-3 weeks were used as fully turned over CECs to represent the maximal ^2H labeling in DNA. A part of the distal and proximal colon was used for immunohistochemistry.
The staining protocol was as described elsewhere, and was modified for CECs. The CECs were separated from colon (as described above) and filtered through a Falcon tube 2235. The cells were then fixed with ice cold 95% ethanol while vortexing, centrifugated at 800 g for 3 minutes and washed in cold PBS (without Ca^++ and Mg^++) once. […] Two million cells were washed of ethanol in 150 ul of PBS, incubated in 1% NP 40 (Sigma) solution in the refrigerator for 30 minutes, centrifugated at 10,000 g, and the pellet was collected and washed in PBS. Two million CEC nuclei were added to each well in 96 well plates (round bottom), then 150 ul of 1% paraformaldehyde with 0.01% Tween 20 in PBS was added for additional fixation and permeabilization. The cells were kept at room temperature for 30 minutes then at 4° C. for 15 minutes, prior to centrifugation at 800 g for 3 minutes and washing in cold PBS once. Next, 150 μl of DNase I (50 kunits/ml) was added at room temperature for 15 minutes to allow denaturation of nuclear DNA. […] For negative controls, an equal concentration of mouse IgG1 FITC isotype control antibodies (Becton Dickinson, Cat 349041) were used to correct for background fluorescence. […]
At the end of each BrdU labeling period (0 week delabed), we analyzed the percent of BrdU positive cells from the proliferative fraction of the crypt (where LRCs have previously been located). This maximal BrdU labeled sample was analyzed to confirm the efficacy of BrdU administration. […]

CEC = CEC proliferation rates of BrdU treated vs control rats (preliminary study); format: in vivo; conditions: data not shown
Source text: There have been reports on the inhibitory effects of BrdU on cell proliferation and differentiation in vitro and in vivo at various concentrations and in various cell types. Since BrdU toxicity is strain and cell type specific, we cannot completely assess possible toxic effects from BrdU on the proliferation of LRCs.

[2] = Body weight and toxicity during BrdU administration (p.o. drinking water vs i.p.); format: in vivo
[3] = Body water ^2H2O enrichment by GC/MS during ^2H2O administration; format: in vivo, Fisher 344 rats; conditions: for Body Water ^2H2O Enrichment: 8% ^2H2O drinking water
Procedure: Rats were primed with 99.9% ^2H2O i.p. at the start of the ^2H2O labeling period. The volume injected was 4% of the estimated body water volume. Then they were maintained on 8% ^2H2O enriched drinking water ad libitum for up to 8 weeks (19).
Body water enrichments were measured by a gas chromatographic/mass spectrometer (GC/MS) technique that we have described previously.
Body water ^2H2O enrichments were measured from plasma obtained from rats sacrificed at each time point. Achievement of plateau ^2H enrichments in body water during long-term ^2H2O administration is desirable because it signifies a stable DNA synthesis precursor enrichment for labeling of DNA. Body water enrichment from rats that were on ^2H2O for 2-8 weeks reached expected values and remained at those plateau levels (3.9-4.3%) throughout the study (FIG. 3).

| SMILES | BrdU+ cells in proliferative fraction, mean±SD over labeling periods ([1]; 0 week delabeled, mean of 2, 4 and 8 weeks BrdU p.o.) | BrdU positive cells after 4 and 8 weeks of BrdU administration ([1]; 4 and 8 weeks BrdU p.o.) | BrdU+ cells in proliferative fraction of the crypt ([1]; after 4 weeks BrdU p.o., 0 week delabeled) | BrdU+ cells in proliferative fraction of the crypt ([1]; after 8 weeks BrdU p.o., 0 week delabeled) | BrdU incorporation / fluorescence of CEC, i.p. vs p.o. ([1]; repeated i.p. injection once a day for 8 days compared with p.o. drinking water) | CEC proliferation rates vs control rats (CEC) | Toxicity or weight loss ([2]; BrdU 1 mg/ml in drinking water, long-term) | Toxicity (body weight) ([2]; BrdU i.p., repeated injections once a day for 8 days) | Body Water ^2H2O Enrichment ([3]; Week 1 of ^2H2O administration) | Body Water ^2H2O Enrichment ([3]; Week 3 of ^2H2O administration) | Body Water ^2H2O Enrichment ([3]; Week 4 of ^2H2O administration) | Delabeling time for ^2H2O to be almost completely washed out of the body water pool ([3]; after stopping ^2H2O intake, found previously in applicant's lab) | Body water enrichment, plateau levels ([3]; rats on ^2H2O for 2-8 weeks, measured from plasma) | Body water enrichment maintained throughout the study ([3]; throughout the study) |
| --- | --- | --- | --- | --- | --- | --- | --- | --- | --- | --- | --- | --- | --- | --- |
| O=c1[nH]c(=O)n([C@H]2C[C@H](O)[C@@H](CO)O2)cc1Br [BrdU, bromodeoxyuridine] | 77±12% | 65-77% | 65% | 77% | more BrdU incorporation and thus higher fluorescence | same CEC proliferation rates as the control rats | did not cause any detectable toxicity or weight loss | caused toxicities; also recorded: caused weight loss; also recorded: toxicities were observed |  |  |  |  |  |  |
| [2H]O[2H] [^2H2O, deuterated water] |  |  |  |  |  |  |  |  | 4.29 | 3.93 | 4.30 | less than 1 week | 3.9-4.3% | 4.2±0.2 % of total body water |

Reference: patent publication US20030224420A1, “Method for isolating and measuring proliferation of long-term label retaining cells and stem cells” (priority 2002, published 2003)
